Results taken from PMC3599558, “Profiling of hepatic clearance pathways of Pittsburgh compound B and human liver cytochrome p450 phenotyping” (EJNMMI Research, 2013).
“Also recorded” adds a separate entry of the source.

Legend:
serotonin 5HT1A receptor = test system: serotonin 5HT1A receptor; parameters: method as in PMID 17574977; conditions: inhibitor of CYP2E1; cited from earlier work
rhCYP1A2 = molecular target: T1, rhCYP1A2 (Homo sapiens, UniProt P05177); experiment: Incubation with recombinantly expressed CYP1A2; type: in vitro ADME
T1 construct: purchased BD Gentest (Woburn, MA, USA); host or cells: Baculovirus transfected insect cell system
T1 sequence (P05177 1-516): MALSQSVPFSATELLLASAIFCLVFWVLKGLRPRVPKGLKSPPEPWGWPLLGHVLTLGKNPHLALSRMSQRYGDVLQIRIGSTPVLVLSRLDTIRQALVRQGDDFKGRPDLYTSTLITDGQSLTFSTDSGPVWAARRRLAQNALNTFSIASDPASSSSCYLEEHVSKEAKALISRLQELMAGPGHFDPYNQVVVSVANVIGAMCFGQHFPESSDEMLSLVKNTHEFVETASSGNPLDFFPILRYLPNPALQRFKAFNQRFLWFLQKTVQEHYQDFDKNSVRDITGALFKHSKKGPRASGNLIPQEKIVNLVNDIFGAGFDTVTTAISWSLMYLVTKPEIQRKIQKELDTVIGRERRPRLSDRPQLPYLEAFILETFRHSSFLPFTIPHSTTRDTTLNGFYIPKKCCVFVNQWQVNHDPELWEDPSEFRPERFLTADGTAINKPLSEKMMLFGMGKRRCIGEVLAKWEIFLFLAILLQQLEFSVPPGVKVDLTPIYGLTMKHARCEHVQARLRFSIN
Protocol: (§1) After a 10 min preincubation at 37°C, the reaction was initiated by addition of 2.0 mM NADPH and incubated for 15 and 60 min. The reactions were terminated by the addition of two volumes of DMSO. Samples were subsequently centrifuged at 4,000 rpm for 10 min. From the resulting supernatant, 10 μL was analysed by liquid chromatography/tandem mass spectrometry (LC-MS/MS). […] Quantification was performed on a TSQ-Vantage instrument (Thermofisher Scientific, Bremen, Germany), fitted with an electrospray ionization source. […] Elution was performed on a Waters XBridge C18 column (3 × 2.1 mm, 2.5 μm; Waters, Boston MA, USA). Solvents A (0.1% formic acid in water) and B (0.1% formic acid in acetonitrile) were used at a flow rate of 500 μL/min. […] The final ratio was held for a further 0.6 min and then reduced again to 5% B over 0.05 min. Data was processed using QuickQuan (Thermofisher Scientific, Bremen, Germany).

[1] = test system: rhCYPs 1A2, 2C9, 2C19, 2D6, and 3A4; experiment: Metabolite profiling of rhCYP incubations; type: in vitro ADME, human; conditions: qualitative LC/MS
Protocol: After a 10 min preincubation at 37°C, the reaction was initiated by addition of 2.0 mM NADPH and incubated for 15 and 60 min. The reactions were terminated by the addition of two volumes of DMSO. Samples were subsequently centrifuged at 4,000 rpm for 10 min. From the resulting supernatant, 10 μL was analysed by liquid chromatography/tandem mass spectrometry (LC-MS/MS). Control experiments were performed by substituting the active enzyme preparation by insect cell preparations containing no rhCYP.
(§2) Qualitative high resolution LC/MS data was acquired on a Waters Premier hybrid quadrupole time-of-flight (QToF) mass spectrometer (Waters, Boston MA, USA) equipped with a liquid chromatography system, using a 10 min gradient method and an Acquity UPLC BEH C18 (2.1 × 100 mm, 1.7 μm) column (Waters, Boston MA). The QToF Premier operated with a cone voltage of 30 eV and collision energy of 30 eV. The gradient employed was 95% solvent A (25 mM ammonium acetate, pH = 9) as the start condition followed by a linear ramp of organic phase concentration from 5% B (25 mM ammonium acetate/MeOH/acetonitrile 10/10/80) to 95% B over 6.5 min. The final ratio was held for 2 min and then reduced again to 5% B over 1 min. Interpretation of data was performed with Metabolynx software (Waters, Boston, MA, USA).

rhCYP 3A4 = molecular target: T2, rhCYP 3A4 (Homo sapiens, UniProt P08684); experiment: Incubation with recombinantly expressed CYP3A4; type: in vitro ADME
T2 construct: purchased BD Gentest (Woburn, MA, USA); host or cells: Baculovirus transfected insect cell system
T2 sequence (P08684 whole entry): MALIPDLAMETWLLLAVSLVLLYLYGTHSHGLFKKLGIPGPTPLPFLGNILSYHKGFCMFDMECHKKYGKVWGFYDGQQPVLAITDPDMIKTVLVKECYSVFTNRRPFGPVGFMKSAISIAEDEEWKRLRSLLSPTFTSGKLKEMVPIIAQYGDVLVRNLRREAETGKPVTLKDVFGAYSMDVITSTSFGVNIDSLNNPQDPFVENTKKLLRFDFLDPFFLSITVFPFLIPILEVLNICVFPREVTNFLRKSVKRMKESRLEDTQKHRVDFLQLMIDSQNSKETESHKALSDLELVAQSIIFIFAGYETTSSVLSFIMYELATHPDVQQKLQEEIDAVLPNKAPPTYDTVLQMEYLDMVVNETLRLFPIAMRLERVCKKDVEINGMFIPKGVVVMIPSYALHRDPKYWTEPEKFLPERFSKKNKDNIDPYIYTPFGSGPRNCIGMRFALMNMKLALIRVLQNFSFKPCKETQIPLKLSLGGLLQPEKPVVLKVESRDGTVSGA
Protocol: as §1

rhCYP 2C19 = molecular target: T3, rhCYP 2C19 (Homo sapiens, UniProt P33261); experiment: Incubation with recombinantly expressed CYP2C19; type: in vitro ADME
T3 construct: purchased BD Gentest (Woburn, MA, USA); host or cells: Baculovirus transfected insect cell system
T3 sequence (P33261 whole entry): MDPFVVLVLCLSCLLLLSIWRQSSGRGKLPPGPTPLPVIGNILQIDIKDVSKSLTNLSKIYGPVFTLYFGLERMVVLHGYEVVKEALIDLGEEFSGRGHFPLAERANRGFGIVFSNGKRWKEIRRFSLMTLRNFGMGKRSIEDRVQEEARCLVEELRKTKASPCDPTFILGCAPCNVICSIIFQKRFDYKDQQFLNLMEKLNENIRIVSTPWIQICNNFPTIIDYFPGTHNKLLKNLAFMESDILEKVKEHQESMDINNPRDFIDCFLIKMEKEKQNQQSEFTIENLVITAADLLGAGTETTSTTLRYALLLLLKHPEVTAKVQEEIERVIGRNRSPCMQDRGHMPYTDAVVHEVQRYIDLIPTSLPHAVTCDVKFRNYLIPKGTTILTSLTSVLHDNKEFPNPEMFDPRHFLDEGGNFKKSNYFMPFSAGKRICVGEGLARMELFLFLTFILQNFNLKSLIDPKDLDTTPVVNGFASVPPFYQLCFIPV
Protocol: as §1

rhCYP 2D6 = molecular target: T4, rhCYP 2D6 (Homo sapiens, UniProt P10635); experiment: Incubation with recombinantly expressed CYP2D6; type: in vitro ADME
T4 construct: purchased BD Gentest (Woburn, MA, USA); host or cells: Baculovirus transfected insect cell system
T4 sequence (P10635 whole entry): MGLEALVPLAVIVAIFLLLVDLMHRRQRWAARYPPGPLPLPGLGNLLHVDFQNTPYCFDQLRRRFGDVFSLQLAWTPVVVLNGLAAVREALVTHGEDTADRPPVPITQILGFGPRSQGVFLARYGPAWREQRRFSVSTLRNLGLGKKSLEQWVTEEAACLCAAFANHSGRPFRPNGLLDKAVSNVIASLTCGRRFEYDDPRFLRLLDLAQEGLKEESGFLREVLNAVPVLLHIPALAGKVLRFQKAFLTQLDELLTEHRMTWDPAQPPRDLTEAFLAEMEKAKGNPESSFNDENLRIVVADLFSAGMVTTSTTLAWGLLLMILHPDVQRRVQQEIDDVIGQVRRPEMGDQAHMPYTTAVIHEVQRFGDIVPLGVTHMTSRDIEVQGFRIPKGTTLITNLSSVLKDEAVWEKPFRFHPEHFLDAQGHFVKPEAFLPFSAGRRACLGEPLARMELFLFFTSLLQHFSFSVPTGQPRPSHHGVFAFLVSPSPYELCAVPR
Protocol: as §1

rhCYP 2C9 = molecular target: T5, rhCYP 2C9 (Homo sapiens, UniProt P11712); experiment: Incubation with recombinantly expressed CYP2C9; type: in vitro ADME
T5 construct: purchased BD Gentest (Woburn, MA, USA); host or cells: Baculovirus transfected insect cell system
T5 sequence (P11712 whole entry): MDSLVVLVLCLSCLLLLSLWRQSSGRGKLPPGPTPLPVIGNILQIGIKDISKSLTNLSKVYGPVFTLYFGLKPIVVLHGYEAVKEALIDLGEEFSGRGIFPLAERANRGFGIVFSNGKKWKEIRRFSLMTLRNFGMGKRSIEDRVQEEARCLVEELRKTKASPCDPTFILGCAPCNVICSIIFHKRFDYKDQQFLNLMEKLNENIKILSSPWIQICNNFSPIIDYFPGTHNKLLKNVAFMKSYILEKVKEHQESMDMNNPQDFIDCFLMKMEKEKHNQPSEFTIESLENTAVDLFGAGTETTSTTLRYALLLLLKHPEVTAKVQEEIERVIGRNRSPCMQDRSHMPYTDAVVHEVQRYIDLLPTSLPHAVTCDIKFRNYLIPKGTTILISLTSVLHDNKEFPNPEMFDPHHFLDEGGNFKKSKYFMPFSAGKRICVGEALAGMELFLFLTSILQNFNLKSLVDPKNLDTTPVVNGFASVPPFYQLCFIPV
Protocol: as §1

[2] = Human liver microsomal metabolism in the presence of cytochrome P450 diagnostic inhibitors; type: in vitro ADME; conditions: PiB 1.0 μM, 60 min
Protocol: (§3) After a 10 min preincubation at 37°C, the reaction was initiated by addition of 0.15 mM NADP and further incubated for either 15 or 60 min. The reactions were terminated by the addition of two volumes DMSO. Samples were subsequently centrifuged at 4,000 rpm for 10 min. From the resulting supernatant, 10 μL was analyzed by LC-MS/MS.
(§4) Quantification was performed on a TSQ-Vantage instrument (Thermofisher Scientific, Bremen, Germany), fitted with an electrospray ionization source. […] Elution was performed on a Waters XBridge C18 column (3 × 2.1 mm, 2.5 μm; Waters, Boston MA, USA). Solvents A (0.1% formic acid in water) and B (0.1% formic acid in acetonitrile) were used at a flow rate of 500 μL/min. […] The final ratio was held for a further 0.6 min and then reduced again to 5% B over 0.05 min. Data was processed using QuickQuan (Thermofisher Scientific, Bremen, Germany).
as §2, with “The gradient employed was 95% solvent A (25 mM ammonium acetate, pH = 9) as the start condition followed by a linear ramp of organic phase concentration from 5% B (25 mM ammonium acetate/MeOH/acetonitrile 10/10/80) to 95% B over 6.5 min.” left out

[3] = Human liver microsomal metabolism (no inhibitor); type: in vitro ADME; conditions: HLM incubations from phenotyping experiments, qualitative LC/MS
Protocol: as §3, §4
Qualitative high resolution LC/MS data was acquired on a Waters Premier hybrid quadrupole time-of-flight (QToF) mass spectrometer (Waters, Boston MA, USA) equipped with a liquid chromatography system, using a 10 min gradient method and an Acquity UPLC BEH C18 (2.1 × 100 mm, 1.7 μm) column (Waters, Boston MA). The QToF Premier operated with a cone voltage of 30 eV and collision energy of 30 eV. […] The final ratio was held for 2 min and then reduced again to 5% B over 1 min. […]

[4] = PiB 1.0 μM, rhCYP 100 pmol/mL, 15 and 60 min
[5] = scaled for approximate relative abundances of CYP isoforms in human liver [10]

| observed turnover with rhCYP1A2 (rhCYP1A2; [4]) | contribution of CYP1A2 to metabolism after scaling (rhCYP1A2; [5]) | drug-related species observed in rhCYP incubations [1] | observed turnover with rhCYP3A4 (rhCYP 3A4; [4]) | contribution of CYP3A4 to metabolism after scaling (rhCYP 3A4; [5]) | observed turnover with rhCYP2C19 (rhCYP 2C19; [4]) | contribution of CYP2C19 to metabolism after scaling (rhCYP 2C19; [5]) | observed turnover with rhCYP2D6 (rhCYP 2D6; [4]) | contribution of CYP2D6 to metabolism after scaling (rhCYP 2D6; [5]) | observed turnover with rhCYP2C9 (rhCYP 2C9; [4]) | contribution of CYP2C9 to metabolism after scaling (rhCYP 2C9; [5]) | change in HLM turnover with inhibitor of CYP1A2 ([2]; alpha-naphthoflavone 3 μM) | change in HLM turnover with inhibitor of CYP2C19 ([2]; benzylphenobarbital 1 μM) | change in HLM turnover with inhibitor of CYP3A4 ([2]; ketoconazole 1 μM) | change in HLM turnover with inhibitor of CYP2D6 ([2]; quinidine 3 μM) | change in HLM turnover with inhibitor of CYP2C9 ([2]; sulfaphenazole 10 μM) | drug-related species detected in HLM [3] | Structure (SMILES) | metabolism after pretreatment with disulfuram (serotonin 5HT1A receptor) |
| --- | --- | --- | --- | --- | --- | --- | --- | --- | --- | --- | --- | --- | --- | --- | --- | --- | --- | --- |
|  |  |  |  |  |  |  |  |  |  |  |  |  |  |  |  |  | COc1ccccc1N1CCN(CCN(C(=O)C2CCC(F)CC2)c2ccccn2)CC1 (stereo not drawn) [FCWAY] | significantly reduced |
| substrate; also recorded: high turnover | primarily metabolized | desmethyl metabolite | substrate; also recorded: high turnover | primarily metabolized | substrate | only minor contributions | substrate | only minor contributions | substrate | primarily metabolized | significant reduction | reduction in turnover is also apparent | significant reduction | reduction in turnover is also apparent | reduction in turnover is also apparent | desmethyl metabolite | CNc1ccc(-c2nc3ccc(O)cc3s2)cc1 [PiB] |  |
